Data on 1 compound can be found in patent publication US12544348B2, “Methods for treating APOE4/4-associated disorders” (The Regents of the University of California, priority 2018, dated 2026).

The test system of assay [1] is hippocampus of apoE4-KI mice. Briefly: RNA-Seq analysis of hippocampal tissue of apoE4-KI mice. The format is in vivo. The procedure: RNA-Seq analysis of hippocampal tissue. Twelve-month-old apoE3-KI and apoE4-KI mice received daily i.p. injections of vehicle or bumetanide (0.2 mg/kg body weight) for 60 days. Mice were perfused with 0.9% saline, and the hippocampus was dissected and homogenized in Trizol reagent. Total RNA was extracted and purified with the Qiagen RNeasy Micro kit, which included a DNase treatment. cDNA was generated from full-length RNA (50 ng per sample) with the NuGEN RNA-Seq V2 kit, which uses the single primer isothermal amplification method to deplete ribosomal RNA, and sheared by Covaris to yield fragments of uniform size. The NuGen Ultralow system V2 was used for adding adapters and for barcoding and amplification. The resulting RNA libraries were purified with Agencourt XP magnetic beads, and quantified by qPCR after quality control with an Agilent Bioanalyzer. The libraries were pooled and sequenced with a HiSeq 4000 instrument (Illumina) for single-end (SE50) sequencing. Sequence data were aligned with the STAR short read aligner^33 and counts per feature were obtained with the feautureCounts function from the Subread package^34. After alignment, transcripts not shared in the GSE15222 and Syn3157255-MayoEGWAS databases were discarded, as were genes with less than one count per million in two or more samples^35.
The DESeq pipeline was used to assess DE of the remaining 11,877 transcripts. Genes below a P value of 0.05 were considered DE for future pathway analysis. After count normalization with DESeq, data were rld transformed (vsn package), and clustering was done on the DE genes with the pheatmap package. PCA was applied to the rld-transformed DE genes. The DE signatures of drugs were analyzed with Ingenuity Pathway Analysis software. Ontology analysis was done using the reference set from the Ingenuity Knowledge Base including direct and indirect gene relationships. For analysis of rank changes of apoE-genotype-specific signature genes of AD, the raw count data from the 11,877 transcripts were rank transformed, and for each gene the average rank of vehicle-treated samples was subtracted from that of bumetanide-treated samples.

Assay [2] concerns apoE4-KI mice. Nature of the assay: Morris water maze (MWM) spatial learning and memory, aged apoE4-KI mice. The assay is classed as in vivo. The source says: Mice. All protocols and procedures followed the guidelines of the Laboratory Animal Resource Center at the University of California, San Francisco (UCSF). All mice were housed under identical conditions from birth through death (12-hour light/dark cycle, housed 5/cage, PicoLab Rodent Diet 20). All mouse lines were maintained on a C57Bl/6J background. ApoE3-KI and apoE4-KI homozygous mouse lines (Taconic)^30,31 were born and aged under normal conditions at the Gladstone Institutes/UCSF animal facility. Female apoE-KI mice were used because of their susceptibility to AD-related neuronal and behavioral deficits. The ages of the mice are indicated in the behavioral testing section of the online methods. Bumetanide treatment. Bumetanide was prepared at 220 μM in 2% DMSO in 0.9% sterile saline, adjusted to pH 8.5 with NaOH for solubility, and given by i.p. injection daily starting 6 weeks before and continuing throughout behavioral assessment. Body weight was measured weekly during bumetanide treatment; injection volume was calculated to achieve a dose of 0.02 (low) or 0.2 (high) mg bumetanide/kg body mass (e.g., 50-ul daily injection for a 20-g mouse). Control mice were injected with a matched volume of 2% DMSO in 0.9% sterile saline, pH 8.5. […] Behavioral testing. Mice were singly housed before testing. Each mouse was assigned a random number, so researchers were blinded to genotype and treatment information. At about 14 months of age, apoE3-KI and apoE4-KI mice were randomly assigned to treatment groups: apoE3-KI vehicle (n=10, age 14.01±0.44 months), apoE3-KI low bumetanide (n=11, age 14.30±0.33 months), apoE3-KI high bumetanide (n=10, age 13.74±0.22 months), apoE4-KI vehicle (n=10, age 14.10±0.35), apoE4-KI low bumetanide (n=10, age 14.70±0.27 months), apoE4-KI high bumetanide (n=9, age 13.77±0.28 months). Treatment was administered daily by i.p. injection beginning 6 weeks before and continuing throughout the 14 days of testing in the Morris water maze (MWM); injections were given at the end of the light cycle and after the day's test. The MWM pool (diameter, 122 cm) contained opaque water (22-23° C.) with a platform 10 cm in diameter. The platform was submerged 1.5 cm during hidden platform sessions^20-23,32 and marked with black-and-white-striped mast (15 cm high) during cued training sessions. Mice were trained to locate the hidden platform (hidden days 1-5) and the cued platform (visible days 1-3) in two daily sessions (3.5 h apart), each consisting of two 60-s trials (hidden and cued training) with a 15-min intertrial interval. Distal visual cues on the walls of the behavioral testing room remained constant throughout the test. Visible trials took place after training and memory probes and were 60 seconds long with a cued visible platform. The platform location remained constant in the hidden platform sessions but was changed for each cued (visible) platform session. Entry points were changed semirandomly between trials. At 24, 72, and 120 hours after the last hidden platform training, a 60-s probe trial (platform removed) was done. The entry point for the probe trial was in the southwest quadrant, and the target quadrant was the northeast quadrant. Performance was monitored with an Etho Vision video-tracking system (Noldus Information Technology). For the probe trials, the following analyses were performed (1) the percent time spent in the target quadrant versus average time spent in the three other quadrants, (2) the number of crossings over the position of the target platform versus the average number of crossings over the equivalent positions in the three other quadrants and (3) the distance to platform over the first 10 seconds. Statistical analyses. Behavior metrics are expressed as mean±SEM. All values for n are the numbers of mice or biological replicates. The distribution of data was assessed with the Shapiro-Wilk normality test; most of the data were normally distributed. […]

Where [3] appears, read: 16-month-old apoE4-KI mice, high dose 0.2 mg/kg daily i.p. 8 weeks.
Where [4] appears, read: apoE4-KI mice, high dose 0.2 mg/kg daily i.p. 8 weeks.

Turning to `CCCCNc1cc(C(=O)O)cc(S(N)(=O)=O)c1Oc1ccccc1` [bumetanide, 3-(butylamino)-4-phenoxy-5-sulfamoylbenzoic acid], the “number of significantly perturbed pathways (Ingenuity Pathway Analysis)” value in assay [1] (DE genes P<0.05, apoE4-KI mouse hippocampus, 0.2 mg/kg i.p. 8 weeks) is on record as 71. Also, in assay [1] (apoE4-KI mouse hippocampus, 0.2 mg/kg i.p. 8 weeks), the “number of enriched pathways shared with apoE4/4 AD in humans” value came out at 6. The “mean change in expression rank of genes downregulated in apoE4/4 AD (n=56)” value in assay [1] (apoE4-KI mouse hippocampus, 0.2 mg/kg i.p. 8 weeks vs vehicle) is recorded as “not significantly shifted away from zero”. Besides, in assay [1] (apoE4-KI mouse hippocampus, 0.2 mg/kg i.p. 8 weeks vs vehicle, mean of all genes zero, P<0.001 Monte Carlo, shift toward lower expression), the “average change in expression rank of the 157 genes upregulated in apoE4/4 human AD” value was 49.76. Also, in assay [2] (setting [3]), the “long-term memory, 120-hour probe trial (time in target quadrant)” value is on record as “significant preference for the target quadrant” and the “short-term memory, 24-hour probe trial (percent time in target quadrant)” value is “rescued the short-term memory deficit”. Besides, the “short-term memory, 24-hour probe trial (percent time in target quadrant)” value in assay [2] (16-month-old apoE4-KI mice, low dose 0.02 mg/kg daily i.p. 8 weeks) is given as “rescued the short-term memory deficit”. In assay [2] (apoE4-KI mice, 0.02 or 0.2 mg/kg daily i.p. 8 weeks, vs vehicle, learning days 1-5), the “learning curve (escape latency) in hidden platform trials” value is recorded as “did not differ”. Also, in assay [2] (setting [4]), the “platform crossings in target quadrant versus other quadrants, 24-hour probe trial” value is “significantly more platform crossings in the target quadrant” and the “platform crossings in target quadrant versus other quadrants, 120-hour probe trial” value is “significantly more platform crossings in the target quadrant”. Moreover, in assay [2] (apoE4-KI mice, low dose 0.02 mg/kg daily i.p. 8 weeks), the “short-term memory accuracy (platform crossings), 24-hour probe trial” value is recorded as “trend toward significant improvement”.
